Results taken from patent publication US20220288052A1, “COMPOUND FOR COMBINATION TREATMENT” (priority 2019, published 2022).

Legend:
5-HT transporter = 5-HT transporter (Homo sapiens, UniProt P31645); experiment: ^3H-uptake human, 5-HT transporter; type: biochemical
From the text: (§1) Compound (I) has been characterized as a monoamine reuptake inhibitor, based on the profile in a series of functional assays (Table 2).

[1] = target: T1, dopamine transporter (DAT) (Mus musculus, UniProt Q61327); experiment: MPTP model of DAT inhibition (striatal dopamine depletion); type: in vivo, C57 mouse; set-up: Dopamine Mean ± SEM / DOPAC Mean ± SEM / HVA Mean ± SEM: unit not given here
T1 construct: in vivo DAT transporter occupancy (open bars) in mouse striatum; from tissue; host or cells: mouse striatum (in vivo; C57 mice in the MPTP model)
From the text: In this model compound (I) induced protection against the dopamine depletion induced by the entry of the MPTP metabolite MPP+ into the dopamine terminals of the mouse C57 striatal tissue.

NMRI mice = experiment: Mouse marble burying test (mMB); type: in vivo
Method: FIG. 13: Marble burying. In the marble-burying test mice exposed to a novel object (marbles) bury them in the sawdust floor covering. Compounds showing anxiolytic-like activity decrease the number of buried marbles at non-sedative doses. […] The number of marbles covered by sawdust was counted at the end of a 60-min session.
Compound (I) was tested in three widely used behavioural screens for predicting anxiolytic effects in the clinic: the mouse marble burying test (mMB), mouse zero maze (mZM) and mouse stress-induced hyperthermia test (mSIH).

[2] = tested on: rat corpus cavernosum strips; experiment: Corpus cavernosum contractility
Method: FIG. 29: Original traces showing the effect of compound (I) on resting tone in rat corpus cavernosum strips. Increasing concentrations (10^−9-3×10^−5 M) of compound (I) were added. Compound (I) induced small relaxations, while at the highest concentration (3×10^−5 M) contraction was observed occasionally (lower trace).
FIG. 30: Average results showing the effect of compound (I) on resting tone in rat corpus cavernosum strips. Increasing concentrations (10^−9-3×10^−5 M) of compound (I) were added. Compound (I) induced small relaxations, while at the highest concentration (3×10^−5 M) contraction was observed occasionally (lower trace). Compound (I) responses were obtained in the presence of vehicle, sildenafil (10^−7 M), guanethidine (10^−5 M), and L-NOARG (10^−4 M). Results are means±s.e. mean of preparations from 5 rats.
FIG. 31: Original traces showing relaxations to compound (I) in rat corpus cavernosum strips contracted with phenylephrine (Phe). Representative traces show compound (I) relaxation in the presence of vehicle, guanethidine (10^−5 M), L-NOARG (10^−4 M), sildenafil (10^−7 M), in phenylephrine-contracted preparations.
FIG. 32: Average relaxations induced by compound (I) in rat corpus cavernosum strips. In phenylephrine-contracted preparations, increasing concentrations (10^−9-3×10^−5 M) of compound (I). […]

hERG channels = hERG channels (Homo sapiens, UniProt Q12809); experiment: cell-based
Method: A HEK293 cell line stably expressing Kv11.3 for hERG and KCNE1 (minK) was established. The effect of compound (I) on the amount of current carried by hERG channels was assessed in whole-cell patch clamp experiments. The channels were activated by a voltage protocol designed to simulate a human cardiac action potential.

NA transporter = NA transporter (Homo sapiens, UniProt P23975); experiment: ^3H-uptake human, NA transporter; type: biochemical
From the text: as §1

[3] = Bioavailability study in rat
[4] = 7.5 mg/kg p.o. 0 min + MPTP 25 mg/kg s.c. 60 min
[5] = 15 mg/kg p.o. 0 min + MPTP 25 mg/kg s.c. 60 min
[6] = 30 mg/kg p.o. 0 min + MPTP 25 mg/kg s.c. 60 min

T1 sequence (Q61327 whole entry): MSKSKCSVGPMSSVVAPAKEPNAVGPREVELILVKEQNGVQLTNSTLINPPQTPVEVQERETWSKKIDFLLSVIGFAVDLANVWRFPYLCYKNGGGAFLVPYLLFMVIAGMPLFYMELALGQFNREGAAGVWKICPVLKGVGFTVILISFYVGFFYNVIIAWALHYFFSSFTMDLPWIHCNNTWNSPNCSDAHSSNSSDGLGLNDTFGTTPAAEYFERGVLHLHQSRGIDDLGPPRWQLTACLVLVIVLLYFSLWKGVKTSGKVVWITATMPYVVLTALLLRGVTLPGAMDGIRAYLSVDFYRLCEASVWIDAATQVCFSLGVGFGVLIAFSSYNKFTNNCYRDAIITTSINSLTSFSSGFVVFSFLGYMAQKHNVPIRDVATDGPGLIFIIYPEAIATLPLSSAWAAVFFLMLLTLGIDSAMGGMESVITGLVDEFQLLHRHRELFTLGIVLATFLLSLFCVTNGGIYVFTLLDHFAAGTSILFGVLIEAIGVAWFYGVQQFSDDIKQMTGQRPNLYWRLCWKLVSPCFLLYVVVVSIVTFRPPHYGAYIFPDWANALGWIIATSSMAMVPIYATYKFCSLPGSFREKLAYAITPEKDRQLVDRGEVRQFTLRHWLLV
Sequence of 5-HT transporter (P31645 whole entry): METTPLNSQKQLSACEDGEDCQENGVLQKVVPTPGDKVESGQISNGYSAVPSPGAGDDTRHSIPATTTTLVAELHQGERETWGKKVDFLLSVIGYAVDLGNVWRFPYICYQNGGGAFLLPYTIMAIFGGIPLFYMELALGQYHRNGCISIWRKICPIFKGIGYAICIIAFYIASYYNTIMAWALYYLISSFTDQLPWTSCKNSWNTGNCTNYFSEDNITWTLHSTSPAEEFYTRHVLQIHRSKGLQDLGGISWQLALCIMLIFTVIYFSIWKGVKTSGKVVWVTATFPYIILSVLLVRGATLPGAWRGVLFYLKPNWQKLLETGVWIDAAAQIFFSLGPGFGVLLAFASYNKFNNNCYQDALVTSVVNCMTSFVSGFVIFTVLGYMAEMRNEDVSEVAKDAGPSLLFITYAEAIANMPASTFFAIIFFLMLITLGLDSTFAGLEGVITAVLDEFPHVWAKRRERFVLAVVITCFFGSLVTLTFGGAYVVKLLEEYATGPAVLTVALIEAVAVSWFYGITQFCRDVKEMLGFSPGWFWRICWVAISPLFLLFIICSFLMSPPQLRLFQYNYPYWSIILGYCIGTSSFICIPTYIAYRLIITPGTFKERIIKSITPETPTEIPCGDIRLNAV
Sequence of NA transporter (P23975 whole entry): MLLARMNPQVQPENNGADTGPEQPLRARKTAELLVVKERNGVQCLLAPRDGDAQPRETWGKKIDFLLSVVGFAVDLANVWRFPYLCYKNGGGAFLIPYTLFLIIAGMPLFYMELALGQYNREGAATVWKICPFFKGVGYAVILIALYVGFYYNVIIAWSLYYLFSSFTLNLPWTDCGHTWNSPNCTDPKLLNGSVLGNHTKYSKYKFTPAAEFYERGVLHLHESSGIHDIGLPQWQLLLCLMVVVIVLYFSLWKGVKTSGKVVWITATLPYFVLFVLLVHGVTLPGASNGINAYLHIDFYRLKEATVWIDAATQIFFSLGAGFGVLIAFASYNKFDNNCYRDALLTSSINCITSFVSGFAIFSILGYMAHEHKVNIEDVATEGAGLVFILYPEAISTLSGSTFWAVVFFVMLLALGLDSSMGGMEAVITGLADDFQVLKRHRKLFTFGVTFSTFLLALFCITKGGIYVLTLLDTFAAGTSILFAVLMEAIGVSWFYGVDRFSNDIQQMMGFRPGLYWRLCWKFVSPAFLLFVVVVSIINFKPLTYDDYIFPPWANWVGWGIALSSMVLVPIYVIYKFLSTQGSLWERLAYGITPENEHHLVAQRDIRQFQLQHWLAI
Sequence of hERG channels (Q12809 whole entry): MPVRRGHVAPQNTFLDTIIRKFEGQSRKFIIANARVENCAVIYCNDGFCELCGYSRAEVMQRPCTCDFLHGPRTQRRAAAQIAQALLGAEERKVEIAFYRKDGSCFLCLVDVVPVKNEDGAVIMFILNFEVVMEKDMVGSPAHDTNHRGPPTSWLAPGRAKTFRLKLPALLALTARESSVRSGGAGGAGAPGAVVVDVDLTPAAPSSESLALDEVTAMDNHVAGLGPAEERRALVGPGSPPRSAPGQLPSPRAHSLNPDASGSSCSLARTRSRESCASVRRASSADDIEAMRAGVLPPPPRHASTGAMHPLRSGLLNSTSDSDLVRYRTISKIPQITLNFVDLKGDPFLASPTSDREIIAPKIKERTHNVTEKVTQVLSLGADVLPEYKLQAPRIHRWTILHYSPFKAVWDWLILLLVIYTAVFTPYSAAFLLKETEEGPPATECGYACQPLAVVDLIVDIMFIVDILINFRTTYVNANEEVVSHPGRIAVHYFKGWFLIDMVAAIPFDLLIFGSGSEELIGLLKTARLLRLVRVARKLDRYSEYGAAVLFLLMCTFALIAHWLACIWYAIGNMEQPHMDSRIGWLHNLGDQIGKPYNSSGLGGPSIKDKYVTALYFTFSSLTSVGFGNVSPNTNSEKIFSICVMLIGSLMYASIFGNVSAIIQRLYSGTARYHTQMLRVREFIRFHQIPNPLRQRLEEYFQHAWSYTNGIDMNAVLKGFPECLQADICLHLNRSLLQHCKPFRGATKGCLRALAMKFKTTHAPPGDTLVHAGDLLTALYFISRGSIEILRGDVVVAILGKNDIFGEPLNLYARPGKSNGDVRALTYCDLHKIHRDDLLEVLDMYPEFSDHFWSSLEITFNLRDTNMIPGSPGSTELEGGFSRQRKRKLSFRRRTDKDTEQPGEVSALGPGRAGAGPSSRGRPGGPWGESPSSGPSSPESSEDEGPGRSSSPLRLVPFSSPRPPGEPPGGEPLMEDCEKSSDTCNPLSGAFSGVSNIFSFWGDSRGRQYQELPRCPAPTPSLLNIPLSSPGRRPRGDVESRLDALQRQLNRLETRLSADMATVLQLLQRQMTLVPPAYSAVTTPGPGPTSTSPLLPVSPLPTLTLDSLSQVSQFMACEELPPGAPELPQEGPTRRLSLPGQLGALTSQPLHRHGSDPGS

For `O=c1ccc2ccc(O[C@@H]3C[C@H]4CC[C@@H](C3)N4)cc2o1` [Compound (I), exo-7-(8-aza-bicyclo[3.2.1]oct-3-yloxy)-chromen-2-one], the IC50 (5-HT transporter) was 1.8 nM, the Ki (5-HT transporter) was 2 nM and the Human transporter ratio (5-HT transporter; 5-HT (reference = 1)) was 1. For the same compound, the “DOPAC Mean ± SEM” value [1, 4] was 1 ± 0.2, the “Dopamine Mean ± SEM” value [1, 4] was 6.3 ± 1.1 and the “HVA Mean ± SEM” value [1, 4] was 0.7 ± 0.1. The “DOPAC Mean ± SEM” value [1, 5] was 1.7 ± 0.1^, the “Dopamine Mean ± SEM” value [1, 5] was 12.5 ± 0.7 and the “HVA Mean ± SEM” value [1, 5] was 1 ± 0.1. The “Protection against MPTP-induced dopamine depletion” value ([1]; 15 mg/kg, C57 mouse striatal tissue) was “approximately 90%”, the “DOPAC Mean ± SEM” value [1, 6] was 2.1 ± 0.2^ and the “Dopamine Mean ± SEM” value [1, 6] was 14.7 ± 1.2. The “HVA Mean ± SEM” value [1, 6] was 1.2 ± 0.1, the MED (NMRI mice; Marble burying, p.o., −60 min) was 0.1 mg/kg and the “Number of visible marbles” value (NMRI mice; per oral, NMRI mice, 60-min session) was “dose-dependently (0.1-1.0 mg/kg) increases in the number of visible marbles”. The “Effect on resting tone” value ([2]; resting corpus cavernosum strips, 10^−9-3×10^−5 M) was “only small relaxations”, the “Relaxation of contracted strips” value ([2]; strips contracted with phenylephrine (10^−6 M)) was “concentration-dependent relaxations were observed at higher concentrations” and the Ki (hERG channels) was > 10000 nM. For the same compound, the IC50 (NA transporter) was 46 nM, the Ki (NA transporter) was 50.1 nM and the Human transporter ratio (NA transporter; NA versus 5-HT) was 26. For the same compound, the T½ i.v. ([3]; rat, 2.5 mg/kg i.v., 2.5 mg/kg) was 36 min and the “Tolerability of i.v. dose” value ([3]; rats, 10 mg/kg i.v.) was “*Rats could not tolerate 10 mg/kg i.v. because of exaggerated dopaminergic effects”.
